Measurements: patent US11576380B2 (priority 2017, dated 2023)
Like-named read-outs stand apart in the source and are kept apart here.

Tests used:
Pyricularia oryzae = assay: microbe, parasite or virus in culture; type: cell-based; conditions: for benzovindiflupyr (B) inhibition (%): Table 1; for benzovindiflupyr (B) inhibition (%) / azoxystrobin (B) inhibition (%): 72 hours; for azoxystrobin (B) inhibition (%): Table 2
Mycosphaerella arachidis = assay: Liquid culture test in well plates, Mycosphaerella arachidis syn. Cercospora arachidicola (peanut brown leaf spot), Example 6; type: cell-based; conditions: Table 4, approximately 5-6 days
Method: The compositions according to the invention are tested for their biological (fungicidal) activity as dimethylsulfoxide (DMSO) solutions using one or more of the following protocols (Examples 2 to 8). A standard description of the liquid culture tests is provided in Example 1.
Mycelia fragments or conidia suspensions of a fungus, prepared either freshly from liquid cultures of the fungus or from cryogenic storage, are directly mixed into nutrient broth. DMSO solutions of the test compound (max. 10 mg/mL) is diluted with 0.025% Tween20 by factor 50 and 10 μL of this solution is pipetted into a microtiter plate (96-well format). The nutrient broth containing the fungal spores/mycelia fragments is then added to give an end concentration of the tested compound. The test plates are incubated in the dark at 24° C. and 96% relative humidity (rh). The inhibition of fungal growth is determined photometrically and visually after 3-7 days, depending on the pathosystem, and percent antifungal activity relative to the untreated check is calculated.
Conidia of the fungus from cryogenic storage were directly mixed into nutrient broth (PDB potato dextrose broth). After placing a DMSO solution of the test compositions into a microtiter plate (96-well format), the nutrient broth containing the fungal spores was added. The test plates were incubated at 24° C. and the inhibition of growth was determined photometrically after approximately 5-6 days.

`Cn1cc(C(=O)Nc2cccc3c2[C@@H]2CC[C@H]3C2=C(Cl)Cl)c(C(F)F)n1` (racemic) [benzovindiflupyr] was tested, and the “benzovindiflupyr (B) inhibition (%)” value (Pyricularia oryzae; benzovindiflupyr alone 0.0125 ppm) was 20%, the “benzovindiflupyr (B) inhibition (%)” value (Pyricularia oryzae; benzovindiflupyr alone 0.0250 ppm) was 50% and the “benzovindiflupyr (B) inhibition (%)” value (Pyricularia oryzae; benzovindiflupyr alone 0.0500 ppm) was 70%. The “benzovindiflupyr (B) inhibition (%)” value (Pyricularia oryzae; benzovindiflupyr alone 0.1000 ppm) was 90%.

With `CO/C=C(/C(=O)OC)c1ccccc1Oc1cc(Oc2ccccc2C#N)ncn1` [azoxystrobin] the “azoxystrobin (B) inhibition (%)” value (Pyricularia oryzae; azoxystrobin alone 0.0250 ppm) was 0%, the “azoxystrobin (B) inhibition (%)” value (Pyricularia oryzae; azoxystrobin alone 0.0500 ppm) was 0% and the “azoxystrobin (B) inhibition (%)” value (Pyricularia oryzae; azoxystrobin alone 0.1000 ppm) was 0%. For the same compound, the “azoxystrobin (B) inhibition (%)” value (Pyricularia oryzae; azoxystrobin alone 0.2000 ppm) was 0%.

In the case of `N#Cc1c(Cl)c(Cl)c(Cl)c(C#N)c1Cl` [chlorothalonil], the inhibition at 0.25 ppm (Pyricularia oryzae; Pyricularia oryzae, 72 h, read-out: chlorothalonil (B) inhibition (%), Table 3, chlorothalonil alone 0.2500 ppm) is reported as 0%, the inhibition at 0.5 ppm (Pyricularia oryzae; Pyricularia oryzae, 72 h, read-out: chlorothalonil (B) inhibition (%), Table 3, chlorothalonil alone 0.5000 ppm) is reported as 0% and the inhibition at 1 ppm (Pyricularia oryzae; Pyricularia oryzae, 72 h, read-out: chlorothalonil (B) inhibition (%), Table 3, chlorothalonil alone 1.0000 ppm) is reported as 20%.

In the case of `COc1ccnc(C(=O)N[C@@H](C)C(=O)O[C@@H](C)C(c2ccc(F)cc2)c2ccc(F)cc2)c1OC(C)=O` [florylpicoxamid, (1S)-2,2-bis(4-fluorophenyl)-1-methylethyl N-{[3-(acetyloxy)-4-methoxy-2-pyridyl]carbonyl}-L-alaninate], the inhibition at 0.025 ppm (Mycosphaerella arachidis; Mycosphaerella arachidis, florylpicoxamid alone 0.0250 ppm) is reported as 4%, the inhibition at 0.05 ppm (Mycosphaerella arachidis; Mycosphaerella arachidis, florylpicoxamid alone 0.0500 ppm) is reported as 15% and the inhibition at 0.1 ppm (Mycosphaerella arachidis; Mycosphaerella arachidis, florylpicoxamid alone 0.1000 ppm) is reported as 38%. For the same compound, the inhibition at 0.0031 ppm (Pyricularia oryzae; Pyricularia oryzae, 72 h, read-out: florylpicoxamid (A) inhibition (%), Table 1, florylpicoxamid alone 0.0031 ppm) was 0%, the inhibition at 0.0063 ppm (Pyricularia oryzae; Pyricularia oryzae, 72 h, read-out: florylpicoxamid (A) inhibition (%), Table 1, florylpicoxamid alone 0.0063 ppm) was 0% and the inhibition at 0.0125 ppm (Pyricularia oryzae; Pyricularia oryzae, 72 h, read-out: florylpicoxamid (A) inhibition (%), Table 1, florylpicoxamid alone 0.0125 ppm) was 0%. The inhibition at 0.025 ppm (Pyricularia oryzae; Pyricularia oryzae, 72 h, read-out: florylpicoxamid (A) inhibition (%), Table 1, florylpicoxamid alone 0.0250 ppm) was 0%, the inhibition at 0.05 ppm (Pyricularia oryzae; Pyricularia oryzae, 72 h, read-out: florylpicoxamid (A) inhibition (%), Table 1, florylpicoxamid alone 0.0500 ppm) was 0% and the inhibition at 0.1 ppm (Pyricularia oryzae; Pyricularia oryzae, 72 h, read-out: florylpicoxamid (A) inhibition (%), Table 1, florylpicoxamid alone 0.1000 ppm) was 20%. For the same compound, the inhibition at 0.1 ppm (Pyricularia oryzae; Pyricularia oryzae, 72 h, read-out: florylpicoxamid (A) inhibition (%), Table 2, florylpicoxamid alone 0.1000 ppm) was 20%, the inhibition at 0.2 ppm (Pyricularia oryzae; Pyricularia oryzae, 72 h, read-out: florylpicoxamid (A) inhibition (%), Table 2, florylpicoxamid alone 0.2000 ppm) was 50% and the inhibition at 0.025 ppm (Pyricularia oryzae; Pyricularia oryzae, 72 h, read-out: florylpicoxamid (A) inhibition (%), Table 3, florylpicoxamid alone 0.0250 ppm) was 0%. It also gave an inhibition at 0.05 ppm (Pyricularia oryzae; Pyricularia oryzae, 72 h, read-out: florylpicoxamid (A) inhibition (%), Table 3, florylpicoxamid alone 0.0500 ppm) of 20%, an inhibition at 0.1 ppm (Pyricularia oryzae; Pyricularia oryzae, 72 h, read-out: florylpicoxamid (A) inhibition (%), Table 3, florylpicoxamid alone 0.1000 ppm) of 30% and an inhibition at 0.2 ppm (Pyricularia oryzae; Pyricularia oryzae, 72 h, read-out: florylpicoxamid (A) inhibition (%), Table 3, florylpicoxamid alone 0.2000 ppm) of 60%.

In the case of `CON(C(=O)c1cn(C)nc1C(F)F)C(C)Cc1c(Cl)cc(Cl)cc1Cl` (stereo not drawn) [pydiflumetofen], the “pydiflumetofen (B) inhibition (%)” value (Mycosphaerella arachidis; pydiflumetofen alone 0.0025 ppm) is reported as 1%, the “pydiflumetofen (B) inhibition (%)” value (Mycosphaerella arachidis; pydiflumetofen alone 0.0050 ppm) is reported as 0% and the “pydiflumetofen (B) inhibition (%)” value (Mycosphaerella arachidis; pydiflumetofen alone 0.0100 ppm) is reported as 28%. The “pydiflumetofen (B) inhibition (%)” value (Mycosphaerella arachidis; pydiflumetofen alone 0.0200 ppm) was 70%.
